Results from article PMC11093748, “De novo identification of CD4^+ T cell epitopes” (Nature Methods, 2024).

Tests used:
TCR15 = assay: Single SABR-II co-incubation, NFAT-GFP Jurkat; assay type: cell-based, mouse; conditions: TCR 15, Fig 3B, 18 h
Summary of the method: (§1)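 Single SABR-II constructs for putative cognate epitopes were expressed in CellTrace Violet-labelled NFAT–GFP Jurkat cells and co-incubated 1:1 (5 × 10^5 each) with TCR-expressing Jurkat cells for 16–20 h. GFP (with CD69 staining when indicated) was measured by flow cytometry. Wells with GFP above the no-TCR control were scored positive.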

TCR4 = assay: Single SABR-II co-incubation, NFAT-GFP Jurkat; assay type: cell-based, mouse; conditions: TCR 4
Summary of the method: as §1

GSE.20D11 TCR = assay: Single SABR-II co-incubation, NFAT-GFP Jurkat (HLA-DQ8); assay type: cell-based, human; conditions: HLA-DQ8 SABR-II
Description: We have previously described SABRs, which are chimeric receptors containing an extracellular pMHC complex attached to an intracellular CD28-CD3ζ signaling domain. […] We sought to expand this platform to allow antigen discovery for MHC/HLA-II with seamless integration with class I alleles. Here, we created SABRs to present epitopes in MHC-II alleles, by covalently linking the epitope to the β-chain of MHC-II that is attached to the CD28-CD3ζ signaling domains downstream, along with a 2A peptide-linked MHC-II α-chain (Fig. 1a,b). To test whether SABR-IIs could present epitopes to TCRs and induce a signal, we expressed them using lentiviral vectors in NFAT–GFP Jurkat cells, which express green fluorescent protein (GFP) upon NFAT activation and translocation downstream of CD3ζ activation (a kind gift from Y. Chen and A. Weiss). We constructed murine SABR-IIs presenting epitopes in I-Ab, I-Ad and I-Ag7 (Ova, […][41]; ATEG, […][42]; and 2.5mimo, […][43], respectively). We co-incubated the SABR-II-expressing NFAT–GFP Jurkat cells with a separate population of Jurkat cells expressing either the BDC2.5 TCR (recognizes I-Ag7-2.5mimo), OT-II TCR (recognizes I-Ab-Ova), 5-4-E8 TCR (recognizes I-Ad-ATEG) or no TCR. […] The signal from the NFAT–GFP reporter offered minimal background in absence of a cognate TCR and correlated with surface SABR expression in the presence of a cognate TCR (Extended Data Fig. 1c–e). […] We confirmed the ability of the DQ8-InsB9:23 SABR-II to present the epitope to two previously described, T1D patient-derived TCRs GSE.6H9 and GSE.20D11 (ref. [46]).
For SABR library screens, 3 × 10^6 NFAT–GFP Jurkat cells expressing the SABR library were labeled with CellTrace Violet (BioLegend) according to the manufacturer’s protocol before incubation with 3 × 10^6 Jurkat cells expressing the TCR of interest. These mixtures were incubated in a six-well plate for 16–20 h. Cells were stained with anti-CD69-APC-Cy7 where indicated (BioLegend) and the top 1–2% of GFP^+CD69^+ cells were sorted for genomic DNA extraction, indexing and sequencing (see below). Multiplexed assays were scaled on a per-TCR basis (for example 3 × 10^6 for each of three TCRs against 9 × 10^6 library cells). For single SABR assays, unless otherwise defined, 5 × 10^5 SABR expressing NFAT–GFP Jurkat cells (or 5KC cells) were labeled with CellTrace Violet (BioLegend) according to the manufacturer’s protocol before incubation with 5 × 10^5 TCR-expressing Jurkat cells (or 5KC cells) in a round-bottom 96-well plate for 16–20 h. Cells were stained with anti-CD69-APC-Cy7 when indicated and acquired on the Attune NxT flow cytometer (Thermo Fisher Scientific). All flow analysis was performed using FlowJo (BD). For Daudi cell co-culture, 1 × 10^6 Jurkat cells expressing the TCR of interest were incubated with 1 × 10^6 Daudi cells expressing a SABR of interest for 3 days. On day 3, cells were labeled with anti-RT1B-PE and anti-Fas-APC-Cy7 before being acquired on the Attune NxT flow cytometer.

TCR11 = assay: Single SABR-II co-incubation, NFAT-GFP Jurkat; assay type: cell-based, mouse; conditions: TCR 11
Summary of the method: as §1

TCR24 = assay: Single SABR-II co-incubation, NFAT-GFP Jurkat; assay type: cell-based, mouse; conditions: TCR 24, Fig 3B, 18 h
Summary of the method: as §1

TCR30 = assay: Single SABR-II co-incubation, NFAT-GFP Jurkat; assay type: cell-based, mouse; conditions: TCR 30
Summary of the method: as §1

TCR37 [1] = assay: Single SABR-II co-incubation, NFAT-GFP Jurkat; assay type: cell-based, mouse; conditions: TCR 37, Fig 3B, 18 h
Summary of the method: as §1

TCR37 [2] = assay: mIL-2 ELISA, TCR-expressing 5KC cells with SABR NFAT-GFP Jurkat cells; assay type: cell-based, mouse; conditions: murine IL-2 ELISA, 24 hr co-incubation
[3] = Fig 3B, 18 h, biological replicate 1
[4] = Fig 3B, 18 h, biological replicate 2
[5] = Fig 3B, 18 h, biological replicate 3

LQTLALNAARDP was tested, and the “%GFP+CD69+ cells of SABR-NFAT-GFP-Jurkat cells” value (shortened to “%GFP+CD69+ cells”) (TCR15; biological replicate 1) was 39.97%, the “%GFP+CD69+ cells” value (TCR15; biological replicate 2) was 41.2% and the “%GFP+CD69+ cells” value (TCR15; biological replicate 3) was 48.23%. The “%GFP+CD69+ cells” value (TCR4; Ext. Data Fig. 6C, 18-20 hr, technical replicate 1) was 21.3%, the “%GFP+CD69+ cells” value (TCR4; Ext. Data Fig. 6C, 18-20 hr, technical replicate 2) was 21.3% and the “%GFP+CD69+ cells” value (TCR4; [3]) was 36.63%. For the same sequence, the “%GFP+CD69+ cells” value (TCR4; [4]) was 32.63%, the “%GFP+CD69+ cells” value (TCR4; [5]) was 39.93% and the “%GFP+CD69+ cells” value (TCR4; Fig 4B, technical replicate 1) was 25.9%. For the same sequence, the “%GFP+CD69+ cells” value (TCR4; Fig 4B, technical replicate 2) was 25.4%, the “%GFP+CD69+ cells” value (TCR4; Fig 5C, technical replicate 1) was 42.4% and the “%GFP+CD69+ cells” value (TCR4; Fig 5C, technical replicate 2) was 42.4%.
SHLVEALYLVCGERG was tested, and the “frequency of GFP+CD69+ cells (in words)” value (GSE.20D11 TCR) was “high frequency of GFP^+CD69^+ cells”, the “%GFP+CD69+ cells” value (TCR11; [3]) was 7.09% and the “%GFP+CD69+ cells” value (TCR11; [4]) was 7.41%. The “%GFP+CD69+ cells” value (TCR11; [5]) was 7.96%, the “%GFP+CD69+ cells” value (TCR11; Fig 4B, technical replicate 1) was 4.58% and the “%GFP+CD69+ cells” value (TCR11; Fig 4B, technical replicate 2) was 4.07%. For the same sequence, the “%GFP+CD69+ cells” value (TCR24; biological replicate 1) was 14.87%, the “%GFP+CD69+ cells” value (TCR24; biological replicate 2) was 17.6% and the “%GFP+CD69+ cells” value (TCR24; biological replicate 3) was 16.8%. For the same sequence, the “%GFP+CD69+ cells” value (TCR30; [3]) was 5.68%, the “%GFP+CD69+ cells” value (TCR30; [4]) was 7.14% and the “%GFP+CD69+ cells” value (TCR30; [5]) was 5.4%. For the same sequence, the “%GFP+CD69+ cells” value (TCR30; Fig 4B, replicate 1) was 3.98%, the “%GFP+CD69+ cells” value (TCR30; Fig 4B, replicate 2) was 3.65% and the “%GFP+CD69+ cells” value (TCR30; Fig 4B, replicate 3) was 3.27%. The “%GFP+CD69+ cells” value (TCR37 [1]; biological replicate 1) was 31.07%, the “%GFP+CD69+ cells” value (TCR37 [1]; biological replicate 2) was 38.77% and the “%GFP+CD69+ cells” value (TCR37 [1]; biological replicate 3) was 34.13%. For the same sequence, the IL-2 secretion (TCR37 [2]; technical replicate 1) was 37.8351 and the IL-2 secretion (TCR37 [2]; technical replicate 2) was 38.2928.
